Experimental data as given in PMC7422938 (Chemical research in toxicology, 2020).
Entries after “also recorded” stand apart in the source; their conditions may differ.

Biological target: T1, microsomal recombinant human cytochrome P450 2A6 (CYP2A6) (Homo sapiens, UniProt P11509)
T1 sequence (P11509 1-494): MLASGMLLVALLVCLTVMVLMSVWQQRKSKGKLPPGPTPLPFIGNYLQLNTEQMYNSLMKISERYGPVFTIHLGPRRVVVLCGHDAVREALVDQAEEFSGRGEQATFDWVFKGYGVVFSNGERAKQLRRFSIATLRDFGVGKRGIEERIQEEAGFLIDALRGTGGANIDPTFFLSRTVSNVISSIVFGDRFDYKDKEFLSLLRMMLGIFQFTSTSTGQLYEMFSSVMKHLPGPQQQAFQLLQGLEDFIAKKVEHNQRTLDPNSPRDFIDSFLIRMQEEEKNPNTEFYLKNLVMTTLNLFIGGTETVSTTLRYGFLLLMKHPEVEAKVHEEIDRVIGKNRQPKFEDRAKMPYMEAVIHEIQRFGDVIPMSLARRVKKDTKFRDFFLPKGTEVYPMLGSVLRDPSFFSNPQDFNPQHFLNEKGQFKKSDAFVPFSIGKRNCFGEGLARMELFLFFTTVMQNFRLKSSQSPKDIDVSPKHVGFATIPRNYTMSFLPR
Experiment: Vivid fluorescence-based CYP2A6 inhibition screening
Type: biochemical

Compound | IC50 [µM] | CYP2A6 inhibition (flavoring agent at 500 μM) | CYP2A6 inhibition (flavoring agent up to 500 μM (highest concentration))
O=Cc1ccccc1 [Benzaldehyde, benzaldehyde] | 3 |  | 
O=C/C=C/c1ccccc1 [Cinnamaldehyde, trans-cinnamaldehyde] | 1.1 |  | 
CCOc1cc(C=O)ccc1O [Ethyl vanillin, ethyl-vanillin] | 69.4 | near-maximal inhibition | 
CC(=O)OCCC(C)C [Isoamyl Acetate, isoamyl acetate] | > 500 |  | negligible inhibition; also recorded: no inhibition
COc1cc(C=O)ccc1O [Vanillin, vanillin] | 70 | near-maximal inhibition | 
